According to PubChem BioAssay AID256 (DTP/NCI, 2004):
Toxic doses and inconclusive results are not listed.

Tested on: CD2F1 mice, L1210 leukemia ip, survival T/C
Experiment: NCI In Vivo Anticancer Drug Screen. Data for tumor model L1210 Leukemia (intraperitoneal) in CD2F1 (CDF1) mice
Details: higher = longer survival
In short: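 Transplantable tumor in mice; compound-treated vs vehicle-treated groups. Read-out = treated/control ratio of the measured endpoint.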

[1] = endpoint: mean survival time, dose: 25.0 mg/kg/injection, schedule: Q01DX009 (ip), vehicle: saline with Tween-80
[2] = endpoint: mean survival time, dose: 50.0 mg/kg/injection, schedule: Q01DX001 (ip), vehicle: saline
[3] = endpoint: mean survival time, dose: 100.0 mg/kg/injection, schedule: Q01DX001 (ip), vehicle: saline with Tween-80
[4] = endpoint: mean survival time, dose: 100.0 mg/kg/injection, schedule: Q01DX001 (ip), vehicle: saline
[5] = endpoint: mean survival time, dose: 200.0 mg/kg/injection, schedule: Q01DX001 (ip), vehicle: saline
[6] = endpoint: mean survival time, dose: 100.0 mg/kg/injection, schedule: Q01DX009 (ip), vehicle: saline with Tween-80
[7] = endpoint: mean survival time, dose: 200.0 mg/kg/injection, schedule: Q01DX009 (ip), vehicle: saline with Tween-80

## O/N=C/c1ccccc1
endpoint: mean survival time, dose: 11.0 mg/kg/injection, schedule: Q01DX009 (ip), vehicle: saline with Tween-80
  T/C: 108 % of control
endpoint: mean survival time, dose: 16.5 mg/kg/injection, schedule: Q01DX009 (ip), vehicle: saline with Tween-80
  T/C: 94 % of control
endpoint: mean survival time, dose: 25.0 mg/kg/injection, schedule: Q01DX001 (ip), vehicle: saline
  T/C: 97 % of control
[1]
  T/C: 97 % of control
endpoint: mean survival time, dose: 37.5 mg/kg/injection, schedule: Q01DX009 (ip), vehicle: saline with Tween-80
  T/C: 95 % of control
[2]
  T/C: 97 % of control
[3]
  T/C: 97 % of control
[4]
  T/C: 101 % of control

## CC(C)/C=N\O
[2]
  T/C: 107 % of control
[4]
  T/C: 110 % of control
[5]
  T/C: 107 % of control

## CCCCC#CC(C)C
endpoint: mean survival time, dose: 100.0 mg/kg/injection, schedule: Q04DX003 (ip), vehicle: saline with Tween-80
  T/C: 98 % of control
endpoint: mean survival time, dose: 200.0 mg/kg/injection, schedule: Q04DX003 (ip), vehicle: saline with Tween-80
  T/C: 102 % of control
endpoint: mean survival time, dose: 400.0 mg/kg/injection, schedule: Q04DX003 (ip), vehicle: saline with Tween-80
  T/C: 102 % of control

## O=C1C(c2ccccc2)CN1C1CCCCC1 (stereo unspecified)
[4]
  T/C: 104 % of control
[5]
  T/C: 101 % of control
endpoint: mean survival time, dose: 400.0 mg/kg/injection, schedule: Q01DX001 (ip), vehicle: saline
  T/C: 87 % of control

## Cc1ccc(CCF)cc1
[3]
  T/C: 107 % of control
endpoint: mean survival time, dose: 200.0 mg/kg/injection, schedule: Q01DX001 (ip), vehicle: saline with Tween-80
  T/C: 109 % of control

## O=CNc1ccc([N+](=O)[O-])cc1
[6]
  T/C: 101 % of control
[7]
  T/C: 94 % of control
endpoint: mean survival time, dose: 400.0 mg/kg/injection, schedule: Q01DX009 (ip), vehicle: saline with Tween-80
  T/C: 91 % of control

## O=C(O[Si](Cc1ccccc1)(Cc1ccccc1)Cc1ccccc1)N(CCCl)CCCl
endpoint: mean survival time, dose: 6.25 mg/kg/injection, schedule: Q01DX009 (ip), vehicle: distilled water + Tween-80
  T/C: 109 % of control
endpoint: mean survival time, dose: 6.25 mg/kg/injection, schedule: Q01DX009 (ip), vehicle: saline with Tween-80
  T/C: 96 % of control
endpoint: mean survival time, dose: 12.5 mg/kg/injection, schedule: Q01DX009 (ip), vehicle: saline with Tween-80
  T/C: 103 % of control
endpoint: mean survival time, dose: 25.0 mg/kg/injection, schedule: Q01DX009 (ip), vehicle: distilled water + Tween-80
  T/C: 117 % of control
[1]
  T/C: 111 % of control
endpoint: mean survival time, dose: 50.0 mg/kg/injection, schedule: Q01DX009 (ip), vehicle: saline with Tween-80
  T/C: 121 % of control
[6]
  T/C: 123 % of control
endpoint: mean survival time, dose: 200.0 mg/kg/injection, schedule: Q01DX009 (ip), vehicle: distilled water + Tween-80
  T/C: 91 % of control
[7]
  T/C: 152 % of control

## O=c1ccn2c(n1)OC1CC2OC1COC(c1ccccc1)(c1ccccc1)c1ccccc1 (stereo unspecified)
endpoint: median survival time, dose: 12.5 mg/kg/injection, schedule: Q01DX005 (ip), vehicle: saline with Tween-80
  T/C: 102 % of control
endpoint: median survival time, dose: 25.0 mg/kg/injection, schedule: Q01DX005 (ip), vehicle: saline with Tween-80
  T/C: 96 % of control
endpoint: median survival time, dose: 50.0 mg/kg/injection, schedule: Q01DX005 (ip), vehicle: saline with Tween-80
  T/C: 95 % of control
endpoint: median survival time, dose: 100.0 mg/kg/injection, schedule: Q01DX005 (ip), vehicle: saline with Tween-80
  T/C: 95 % of control
endpoint: median survival time, dose: 200.0 mg/kg/injection, schedule: Q01DX005 (ip), vehicle: saline with Tween-80
  T/C: 98 % of control

## Nc1ncnc2cc3ncn(C4OC(CO)C(O)C4O)c3cc12 (stereo unspecified)
endpoint: mean survival time, dose: 12.5 mg/kg/injection, schedule: Q01DX005 (ip), vehicle: water
  T/C: 100 % of control
endpoint: mean survival time, dose: 25.0 mg/kg/injection, schedule: Q01DX005 (ip), vehicle: water
  T/C: 104 % of control
endpoint: mean survival time, dose: 50.0 mg/kg/injection, schedule: Q01DX005 (ip), vehicle: water
  T/C: 106 % of control
endpoint: mean survival time, dose: 100.0 mg/kg/injection, schedule: Q01DX005 (ip), vehicle: water
  T/C: 100 % of control
endpoint: mean survival time, dose: 200.0 mg/kg/injection, schedule: Q01DX005 (ip), vehicle: water
  T/C: 100 % of control
